Assay results as given in US9579385B2, “Ophthalmic compositions comprising polyvinyl caprolactam-polyvinyl acetate-polyethylene glycol graft copolymers” (Allergan, Inc., priority 2011, dated 2017).
Values after ≈ are worked out from the molar mass of the structure shown.

Assay: Bimatoprost solubility in formulation vehicles with different solubilizers
Format: physicochemical
Settings: for solubility at 8 weeks: measured at 8 weeks; for solubility at 1 week: formulation vehicle with 1% SOLUPLUS (PCA-PVA-PEG), vehicle with 1% SOLUPLUS (PCA-PVA-PEG), measured at 1 week only
Excerpt: Table 1 summarizes solubility of bimatoprost in vehicles with 5 different solubilizers over a range of temperatures.

solubility at 8 weeks (formulation vehicle with 1% POE 40 Stearate, aqueous with cosolvent or surfactant or cyclodextrin, vehicle with 1% POE 40 Stearate, 5 °C): 1270 µg/mL (≈ 3.05 mM)
solubility at 8 weeks (formulation vehicle with 1% POE 40 Stearate, aqueous with cosolvent or surfactant or cyclodextrin, vehicle with 1% POE 40 Stearate, 25 °C): 1210 µg/mL (≈ 2.92 mM)
solubility at 8 weeks (formulation vehicle with 1% POE 40 Stearate, aqueous with cosolvent or surfactant or cyclodextrin, vehicle with 1% POE 40 Stearate, 40 °C): 1150 µg/mL (≈ 2.76 mM)
solubility at 8 weeks (formulation vehicle with 1% Polysorbate 20, aqueous with cosolvent or surfactant or cyclodextrin, vehicle with 1% Polysorbate 20, 5 °C): 1240 µg/mL (≈ 2.99 mM)
solubility at 8 weeks (formulation vehicle with 1% Polysorbate 20, aqueous with cosolvent or surfactant or cyclodextrin, vehicle with 1% Polysorbate 20, 25 °C): 1180 µg/mL (≈ 2.83 mM)
solubility at 8 weeks (formulation vehicle with 1% Polysorbate 20, aqueous with cosolvent or surfactant or cyclodextrin, vehicle with 1% Polysorbate 20, 40 °C): 1050 µg/mL (≈ 2.53 mM)
solubility at 8 weeks (formulation vehicle with 1% Polysorbate 80, aqueous with cosolvent or surfactant or cyclodextrin, vehicle with 1% Polysorbate 80, 5 °C): 1680 µg/mL (≈ 4.04 mM)
solubility at 8 weeks (formulation vehicle with 1% Polysorbate 80, aqueous with cosolvent or surfactant or cyclodextrin, vehicle with 1% Polysorbate 80, 25 °C): 1520 µg/mL (≈ 3.67 mM)
solubility at 8 weeks (formulation vehicle with 1% Polysorbate 80, aqueous with cosolvent or surfactant or cyclodextrin, vehicle with 1% Polysorbate 80, 40 °C): 1460 µg/mL (≈ 3.51 mM)
solubility at 1 week (aqueous with cosolvent or surfactant or cyclodextrin, 5 °C): 427 µg/mL (≈ 1.03 mM)
solubility at 1 week (aqueous with cosolvent or surfactant or cyclodextrin, 25 °C): 3510 µg/mL (≈ 8.45 mM)
solubility at 1 week (aqueous with cosolvent or surfactant or cyclodextrin, 40 °C): 4750 µg/mL (≈ 11.4 mM)
solubility at 8 weeks (formulation vehicle with 1% SOLUTOL HS 15, aqueous with cosolvent or surfactant or cyclodextrin, vehicle with 1% SOLUTOL HS 15, 5 °C): 1500 µg/mL (≈ 3.61 mM)
solubility at 8 weeks (formulation vehicle with 1% SOLUTOL HS 15, aqueous with cosolvent or surfactant or cyclodextrin, vehicle with 1% SOLUTOL HS 15, 25 °C): 1320 µg/mL (≈ 3.18 mM)
solubility at 8 weeks (formulation vehicle with 1% SOLUTOL HS 15, aqueous with cosolvent or surfactant or cyclodextrin, vehicle with 1% SOLUTOL HS 15, 40 °C): 1240 µg/mL (≈ 2.98 mM)
Structure (SMILES): CCNC(=O)CCC/C=C\C[C@@H]1[C@@H](/C=C/[C@@H](O)CCc2ccccc2)[C@H](O)C[C@@H]1O [Bimatoprost]
